Legend:
[1] = tested on: LOX IMVI; assay: Cytotoxicity against human LOXIMVI cells; type: functional
[2] = tested on: ACHN; assay: Cytotoxicity against human ACHN cells; type: functional
[3] = tested on: PC-3; assay: Cytotoxicity against human PC3 cells; type: functional
[4] = tested on: HCT-15; assay: Cytotoxicity against human HCT15 cells; type: functional
[5] = tested on: MDA-MB-231; assay: Cytotoxicity against human MDA-MB-231 cells; type: functional
[6] = tested on: NCI-H23; assay: Cytotoxicity against human NCI-H23 cells; type: functional
[7] = Inhibition of HDAC by fluorescence assay
[8] = Metabolic stability in ICR mouse liver microsomes assessed as compound remaining at 1 uM after 60 mins in absence of NADPH; type: ADME, Microsome; conditions: read-out: Stability
[9] = Metabolic stability in ICR mouse liver microsomes assessed as compound remaining at 1 uM after 60 mins in presence of NADPH; type: ADME, Microsome; conditions: read-out: Stability
[10] = tested on: NUGC-3; assay: Cytotoxicity against human NUGC3 cells; type: functional
[11] = Apparent permeability across human Caco2 cells; type: ADME, cell-based; conditions: Caco-2
[12] = Metabolic stability in ICR mouse liver microsomes assessed as compound remaining at 1 uM after 60 mins in presence of buffer; type: ADME, Microsome; conditions: read-out: Stability
[13] = target: T1, Histone deacetylase 8 (Homo sapiens, UniProt Q9BY41); assay: Inhibition of HDAC8 by fluorescence assay
T1 sequence (Q9BY41 whole entry): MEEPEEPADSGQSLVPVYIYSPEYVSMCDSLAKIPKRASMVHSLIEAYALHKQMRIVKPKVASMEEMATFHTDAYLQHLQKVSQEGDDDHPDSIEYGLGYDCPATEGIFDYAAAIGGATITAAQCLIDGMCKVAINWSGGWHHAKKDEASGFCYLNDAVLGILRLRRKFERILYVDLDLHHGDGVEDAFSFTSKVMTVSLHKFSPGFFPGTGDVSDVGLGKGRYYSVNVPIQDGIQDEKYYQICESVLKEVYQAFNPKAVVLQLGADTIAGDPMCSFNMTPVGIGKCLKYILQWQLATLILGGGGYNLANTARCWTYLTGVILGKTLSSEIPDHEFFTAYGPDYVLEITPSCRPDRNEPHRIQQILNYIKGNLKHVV

[14] = Cmax in BALB/c mouse at 20 mg/kg, po; type: ADME, organism-based; design: dose 20 mg/kg, route oral; conditions: in vivo
[15] = tested on: Mus musculus; assay: Toxicity in human HCT116 cells xenografted nude mouse assessed as change in body weight at 30 mg/kg, ip for 20 days; type: organism-based, HCT-116; design: dose 30 mg/kg, route intraperitoneal; conditions: in vivo, 480 h
[16] = AUC (0 to infinity) in BALB/c mouse at 5 mg/kg, iv; type: ADME, organism-based; design: time infinity, dose 5 mg/kg, route intravenous; conditions: plasma
[17] = target: Histone deacetylase 2 (Homo sapiens, UniProt Q92769); assay: Inhibition of HDAC2 by fluorescence assay
[18] = Inhibition of HDAC assessed as increase of histone H4 acetylation
[19] = tested on: HCT-116; assay: Antitumor activity against human HCT116 cells xenografted in nude mouse assessed as inhibition of tumor growth at 30 mg/kg, ip for 20 days relative to control; type: functional; design: scale not given: the % may be the effect or the level left; conditions: route intraperitoneal
[20] = tested on: HCT-116; assay: Antitumor activity against human HCT116 cells xenografted in nude mouse assessed as reduction of tumor volume at 30 mg/kg, ip for 20 days (reference value: 369.8 mm'3); type: functional; conditions: route intraperitoneal
[21] = Half life in BALB/c mouse at 20 mg/kg, po; type: ADME, organism-based; design: dose 20 mg/kg, route oral; conditions: in vivo
[22] = target: T2, Protein deacetylase HDAC6 (Homo sapiens, UniProt Q9UBN7)
T2 sequence (Q9UBN7 whole entry): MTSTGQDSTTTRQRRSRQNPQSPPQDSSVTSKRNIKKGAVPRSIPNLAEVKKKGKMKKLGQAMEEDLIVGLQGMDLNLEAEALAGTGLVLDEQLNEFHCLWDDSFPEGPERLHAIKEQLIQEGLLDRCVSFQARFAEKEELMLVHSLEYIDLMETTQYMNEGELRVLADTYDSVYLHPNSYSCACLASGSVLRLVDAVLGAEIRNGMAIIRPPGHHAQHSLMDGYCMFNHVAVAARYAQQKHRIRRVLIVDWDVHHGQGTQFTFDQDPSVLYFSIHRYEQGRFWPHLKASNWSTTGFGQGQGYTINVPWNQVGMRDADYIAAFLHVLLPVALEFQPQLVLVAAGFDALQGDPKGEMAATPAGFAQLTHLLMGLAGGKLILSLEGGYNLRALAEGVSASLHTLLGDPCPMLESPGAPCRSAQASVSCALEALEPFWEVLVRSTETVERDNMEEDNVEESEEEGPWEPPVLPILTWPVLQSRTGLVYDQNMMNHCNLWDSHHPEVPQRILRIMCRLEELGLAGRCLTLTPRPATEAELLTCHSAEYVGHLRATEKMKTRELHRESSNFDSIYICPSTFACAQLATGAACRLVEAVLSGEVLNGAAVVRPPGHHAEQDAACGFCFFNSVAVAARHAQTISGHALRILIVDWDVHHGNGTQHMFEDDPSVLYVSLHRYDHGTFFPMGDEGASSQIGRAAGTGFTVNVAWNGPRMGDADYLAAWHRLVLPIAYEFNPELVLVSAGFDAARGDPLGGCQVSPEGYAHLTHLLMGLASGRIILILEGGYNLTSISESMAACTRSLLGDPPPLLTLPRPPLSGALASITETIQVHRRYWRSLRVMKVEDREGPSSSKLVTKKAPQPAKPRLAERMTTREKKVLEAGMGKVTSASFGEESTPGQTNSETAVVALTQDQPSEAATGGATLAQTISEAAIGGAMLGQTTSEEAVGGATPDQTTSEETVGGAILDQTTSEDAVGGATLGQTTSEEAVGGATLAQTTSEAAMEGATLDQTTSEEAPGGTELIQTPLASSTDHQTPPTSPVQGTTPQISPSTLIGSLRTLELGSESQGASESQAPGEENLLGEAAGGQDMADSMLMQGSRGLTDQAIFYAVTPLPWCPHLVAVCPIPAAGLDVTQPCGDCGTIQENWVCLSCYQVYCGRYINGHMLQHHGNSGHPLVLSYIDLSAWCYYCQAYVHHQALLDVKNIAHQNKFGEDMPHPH

[23] = AUC (0 to 5 hrs) in BALB/c mouse at 20 mg/kg, po; type: ADME, organism-based; design: time < 4 hr, dose 20 mg/kg, route oral; conditions: plasma
[24] = target: Histone deacetylase 3 (Homo sapiens, UniProt O15379)
[25] = Inhibition of HDAC assessed as increase of histone H3 acetylation
[26] = target: Histone deacetylase 1 (Homo sapiens, UniProt Q13547); assay: Inhibition of HDAC1 by fluorescence assay
[27] = Clearance in BALB/c mouse at 5 mg/kg, iv; type: ADME, organism-based; design: dose 5 mg/kg, route intravenous; conditions: in vivo
[28] = Oral bioavailability in BALB/c mouse at 20 mg/kg; type: ADME, organism-based; conditions: in vivo
[29] = Half life in BALB/c mouse at 5 mg/kg, iv; type: ADME, organism-based; design: dose 5 mg/kg, route intravenous; conditions: in vivo
[30] = Volume of distribution at steady state in BALB/c mouse at 5 mg/kg, iv; type: ADME, organism-based; design: dose 5 mg/kg, route intravenous; conditions: in vivo, read-out: Vdss
[31] = Tmax in BALB/c mouse at 20 mg/kg, po; type: ADME, organism-based; design: dose 20 mg/kg, route oral; conditions: in vivo

Chain of Histone deacetylase 3 (O15379 whole entry): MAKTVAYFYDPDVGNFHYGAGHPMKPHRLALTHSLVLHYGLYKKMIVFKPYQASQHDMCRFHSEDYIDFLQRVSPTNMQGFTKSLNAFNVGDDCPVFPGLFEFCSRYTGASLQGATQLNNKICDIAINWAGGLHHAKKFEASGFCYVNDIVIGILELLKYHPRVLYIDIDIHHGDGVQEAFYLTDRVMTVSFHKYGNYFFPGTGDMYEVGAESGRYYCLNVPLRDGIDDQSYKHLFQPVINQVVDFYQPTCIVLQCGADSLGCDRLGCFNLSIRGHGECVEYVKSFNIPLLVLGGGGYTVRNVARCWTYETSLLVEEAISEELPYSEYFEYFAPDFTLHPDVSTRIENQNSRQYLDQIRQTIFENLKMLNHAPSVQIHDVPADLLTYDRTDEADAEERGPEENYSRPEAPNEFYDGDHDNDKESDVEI
Chain of Histone deacetylase 1 (Q13547 whole entry): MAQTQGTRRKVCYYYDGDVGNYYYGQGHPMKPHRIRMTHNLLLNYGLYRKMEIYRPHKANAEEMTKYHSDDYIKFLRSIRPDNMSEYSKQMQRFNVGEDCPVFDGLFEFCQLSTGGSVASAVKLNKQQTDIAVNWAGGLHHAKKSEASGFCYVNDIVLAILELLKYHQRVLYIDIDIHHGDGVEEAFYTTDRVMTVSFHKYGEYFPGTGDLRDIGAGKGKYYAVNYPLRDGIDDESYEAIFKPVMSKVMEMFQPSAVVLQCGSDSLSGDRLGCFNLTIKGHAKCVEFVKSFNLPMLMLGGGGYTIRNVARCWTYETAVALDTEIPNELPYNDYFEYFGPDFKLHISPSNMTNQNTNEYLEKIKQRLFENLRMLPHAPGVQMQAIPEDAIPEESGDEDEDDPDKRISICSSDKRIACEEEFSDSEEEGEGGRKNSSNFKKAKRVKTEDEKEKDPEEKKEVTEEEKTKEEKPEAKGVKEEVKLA
Chain of Histone deacetylase 2 (Q92769 whole entry): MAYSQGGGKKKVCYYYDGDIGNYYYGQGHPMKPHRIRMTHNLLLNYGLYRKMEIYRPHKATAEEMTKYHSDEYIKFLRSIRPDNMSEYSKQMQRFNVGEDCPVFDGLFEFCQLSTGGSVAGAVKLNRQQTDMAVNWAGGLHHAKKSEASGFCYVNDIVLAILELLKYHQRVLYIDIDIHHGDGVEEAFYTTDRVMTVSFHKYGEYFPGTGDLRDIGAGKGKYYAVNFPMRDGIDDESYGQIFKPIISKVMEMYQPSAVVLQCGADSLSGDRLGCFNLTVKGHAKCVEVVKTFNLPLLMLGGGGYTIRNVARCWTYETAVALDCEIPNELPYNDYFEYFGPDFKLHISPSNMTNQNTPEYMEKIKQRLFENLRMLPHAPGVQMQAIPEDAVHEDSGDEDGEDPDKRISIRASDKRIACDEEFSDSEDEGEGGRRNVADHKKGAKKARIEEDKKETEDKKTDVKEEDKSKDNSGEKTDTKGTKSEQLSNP

O=C(CCC1=CCCN(Cc2ccc3ccccc3c2)C1=O)NO
GI50 [1]: 30 µM
GI50 [2]: 6.09 µM
GI50 [3]: 30 µM
GI50 [4]: 6.82 µM
GI50 [5]: 4.07 µM
GI50 [6]: 30 µM
IC50 [7]: 30 µM

O=C(CCC1=CCCN(CCc2cccc3ccccc23)C1=O)NO
IC50 [7]: 0.32 µM

O=C(CCC1=CCN(CCc2cccc3ccccc23)C1=O)NO
GI50 [1]: 3.71 µM
GI50 [2]: 6.41 µM
GI50 [3]: 5.76 µM
GI50 [4]: 6.78 µM
remaining at 1 h, 1 µM [8]: 15.1%
remaining at 1 h, 1 µM [9]: 3.9%
GI50 [5]: 4.76 µM
GI50 [10]: 5.23 µM
GI50 [6]: 5.13 µM
IC50 [7]: 0.36 µM

O=C(CCC1=CCN(CCc2ccccc2)C1=O)NO
GI50 [1]: 30 µM
GI50 [2]: 1.08 µM
GI50 [3]: 4.43 µM
GI50 [4]: 5.37 µM
GI50 [5]: 0.99 µM
GI50 [6]: 4.29 µM
IC50 [7]: 0.12 µM

O=C(CCC1=CCCN(Cc2ccccc2)C1=O)NO
GI50 [1]: 30 µM
GI50 [2]: 30 µM
GI50 [3]: 30 µM
GI50 [4]: 30 µM
GI50 [5]: 4.26 µM
GI50 [6]: 30 µM
IC50 [7]: 0.67 µM

O=C(CCC1=CCN(CCc2ccc3ccccc3c2)C1=O)NO
GI50 [1]: 0.61 µM
GI50 [2]: 0.63 µM
GI50 [3]: 0.34 µM
GI50 [4]: 0.84 µM
remaining at 1 h, 1 µM [8]: 46.6%
remaining at 1 h, 1 µM [9]: 29.7%
GI50 [5]: 0.59 µM
GI50 [10]: 0.8 µM
GI50 [6]: 0.5 µM
IC50 [7]: 0.05 µM

O=C(CCC1=CCN(CCCc2ccccc2)C1=O)NO
GI50 [1]: 4.52 µM
GI50 [2]: 4.24 µM
GI50 [3]: 3.91 µM
GI50 [4]: 6.23 µM
Papp [11]: 9.5 ×10⁻⁶ cm/s
remaining at 1 h, 1 µM [8]: 66.3%
remaining at 1 h, 1 µM [9]: 66.6%
GI50 [5]: 3.81 µM
GI50 [10]: 2.6 µM
GI50 [6]: 3.46 µM
IC50 [7]: 0.05 µM

O=C(CCC1=CCCN(CCc2ccccc2)C1=O)NO
GI50 [1]: 5.84 µM
GI50 [2]: 7.76 µM
GI50 [3]: 9.84 µM
GI50 [4]: 8.16 µM
GI50 [5]: 1.62 µM
GI50 [6]: 30 µM
IC50 [7]: 0.35 µM

O=C(CCC1=CCCN(CCc2ccc3ccccc3c2)C1=O)NO
GI50 [1]: 0.56 µM
GI50 [2]: 0.61 µM
remaining at 1 h, 1 µM [12]: 99.1%
GI50 [3]: 0.56 µM
GI50 [4]: 0.79 µM
Papp [11]: 19.1 ×10⁻⁶ cm/s
remaining at 1 h, 1 µM [8]: 31%
remaining at 1 h, 1 µM [9]: 10.3%
GI50 [5]: 0.45 µM
GI50 [10]: 0.42 µM
GI50 [6]: 0.54 µM
IC50 [7]: 0.04 µM

O=C(CCC1=CCCN(CCCc2ccccc2)C1=O)NO
GI50 [3]: 6.98 µM
Papp [11]: 17.5 ×10⁻⁶ cm/s
IC50 [7]: 0.27 µM

O=C(CCC1=CCN(Cc2ccccc2)C1=O)NO
GI50 [1]: 30 µM
GI50 [2]: 30 µM
GI50 [3]: 30 µM
GI50 [4]: 30 µM
GI50 [5]: 4.73 µM
GI50 [6]: 30 µM
IC50 [7]: 0.8 µM

O=C(CCC1=CCN(CCCc2ccc3ccccc3c2)C1=O)NO
IC50 [13]: 120 µM
Cmax [14]: 813 ng/mL
Activity [15]: Non-toxic
GI50 [1]: 0.82 µM
AUC(0-inf) [16]: 890 ng·h/mL
IC50 [17]: 16.4 µM
inhibition [18]: Dose-dependent effect
Activity [19]: 34.4%
Activity [20]: 242.2 mm3
half-life [21]: 38.4 min
IC50 [22]: 0.8 µM
GI50 [2]: 0.65 µM
AUC(0-t) at 4 h [23]: 309 ng·h/mL
IC50 [24]: 80.1 µM
inhibition [25]: Dose-dependent effect
remaining at 1 h, 1 µM [12]: 97.2%
GI50 [3]: 1.09 µM
IC50 [26]: 25.6 µM
clearance [27]: 93.7 mL/min/kg
GI50 [4]: 0.78 µM
bioavailability [28]: 8.7%
half-life [29]: 9 min
Vd [30]: 0.85 L/kg
Papp [11]: 16.3 ×10⁻⁶ cm/s
remaining at 1 h, 1 µM [8]: 71.1%
remaining at 1 h, 1 µM [9]: 43.1%
GI50 [5]: 0.65 µM
GI50 [10]: 0.61 µM
Tmax [31]: 15 min
GI50 [6]: 0.61 µM
IC50 [7]: 0.01 µM

O=C(CCC1=CCN(Cc2ccc3ccccc3c2)C1=O)NO
GI50 [1]: 7.98 µM
GI50 [2]: 1.39 µM
GI50 [3]: 4.88 µM
GI50 [4]: 3.54 µM
GI50 [5]: 1.22 µM
GI50 [6]: 5.19 µM
IC50 [7]: 0.15 µM

O=C(CCC1=CCCN(CCCc2ccc3ccccc3c2)C1=O)NO
GI50 [2]: 5.78 µM
GI50 [3]: 3.77 µM
GI50 [5]: 4.7 µM
IC50 [7]: 0.14 µM

CC(/C=C/C(=O)NO)=C\[C@@H](C)C(=O)c1ccc(N(C)C)cc1
inhibition [18]: Dose-dependent effect
inhibition [25]: Dose-dependent effect

Source: ChEMBL document CHEMBL1667837, “Structure and property based design, synthesis and biological evaluation of γ-lactam based HDAC inhibitors” (Bioorg Med Chem Lett, 2011)
